# What was measured:
# [1] = biological target: T1, hEP4 receptors (human EP4/HEK293 transfectant) (Homo sapiens, UniProt P35408); experiment: [3H]-PGE2 membrane binding assay; details: [3H]-PGE2 1 nM, human EP4/HEK293 membranes, compounds 1 nM to 1 μM; Ki by Cheng-Prusoff, pKi = -log10 Ki (M)
# T1 construct: expressed in transfected cells; host or cells: HEK-293, stably transfected; membrane fraction
# From the text: (§1) Stable Expression of Human EP4 Receptors in the Human Embryonic Kidney (HEK293) Cell Line
# (§2) The cDNA clone of human EP4 receptor (NM_000958.2) was obtained from Invitrogen™: Ultimate™ ORF Clone Collection-Clone ID IOH46525. The coding sequence was subcloned in expression vector pcDNATM6.2/V5-DEST by Gateway technology (Invitrogen™).
# (§3) Human embryonic kidney cells (HEK-293) were stably transfected with expression vector for human EP4 receptor in according to the method described in FuGENE®6 Transfection Reagent's manual (Roche Applied Science®).
# (§4) Preparation of Membrane Fraction:
# (§5) The EP4 transfected cells were grown in Dulbecco's modified Eagle's medium containing 10% fetal bovine serum and 10 μg/ml Blasticidin S HCl (selection medium) at 37° C. in a humidified atmosphere of 5% CO2 in air.
# (§6) For the membrane preparation, cells in flask were harvested by hypotonical/mechanical lysis with chilled (4° C.) TE buffer (5 mM TRIS, 5 mM etylenediamine tetra-acetic acid (EDTA), pH 7.4).
# (§7) Cells were detached and lysed with 10 ml of hypotonic lysis buffer and by scraping. The cell lysate was vortexed for 30 sec and centrifuged at 40000×g at 4° C. for 22 min.
# a) Membrane Binding Assay[3H]-Prostaglandin E2
# The membrane pellet was resuspended in the same buffer (5 mM TRIS, 5 mM ethylenediamine tetra-acetic acid (EDTA), pH 7.4), and protein concentration was determined by Bradford method (Bio-Bad® assay).
# This membrane preparation was stored at −80° C. freezer until use for binding assay.
# ([^3H]-PGE2) membranes binding assays toward hEP4 receptors (human EP4/HEK293 transfectant, see above) and hEP2 receptors (human EP2/HEK293 transfectant, purchased from PerkinElmer Inc) were performed in 10 mM MES-KOH buffer pH6, containing 10 mM MgCl2 and 1 mM CaCl2 for EP4 binding assay or 50 mM Tris-Cl, BSA 0.5% for EP2 binding assay (according to supplier indication).
# Ten microgram of protein from membrane fractions were incubated in a total volume of 0.1 ml (EP4) or 0.2 ml (EP2) with 1 nM (EP4) or 3 nM (EP2) [^3H]-PGE2 (PerkinElmer Inc, 171 Ci/mmol). In both assays to determine the total binding or non specific binding, 1% DMSO or 1 μM prostaglandin E2 (EP4) or 100 μM (EP2) were added to reaction mixtures, respectively. Incubation was conducted in a polypropylene 96 multiwell for 90 min (EP4) or 60 min (EP2) at room temperature prior to separation of the bound and free radioligand by vacuum manifold rapid filtration on glass fiber filters (Unifilter GFB96, PerkinElmer Inc) pre-soaked in 0.3% polyethyleneimine. Filters were washed with ice cold buffer pH 7.4 (50 mM HEPES, NaCl 500 mM, BSA 0.1% for EP4 binding assay or 50 mM Tris-Cl for EP2 binding assays) and the residual [^3H]-PGE2 binding determined by solid scintillation counter (TopCount, PerkinElmer Inc).
# The affinity (Ki) of each compound was calculated according to the Cheng-Prousoff equation: Ki=IC50/(1+([C]/Kd)). Results were expressed as pKi (−log 10 Ki (M)
# [2] = biological target: T2, human EP4 receptor (Homo sapiens, UniProt P35408); experiment: cAMP assay on human EP4 membrane of transfected cells (AlphaScreen); assay type: biochemical; details: human EP4 HEK293 cell membranes
# T2 construct: expressed in transfected cells; host or cells: HEK-293, stably transfected; membrane fraction
# T2 sequence (P35408 whole entry): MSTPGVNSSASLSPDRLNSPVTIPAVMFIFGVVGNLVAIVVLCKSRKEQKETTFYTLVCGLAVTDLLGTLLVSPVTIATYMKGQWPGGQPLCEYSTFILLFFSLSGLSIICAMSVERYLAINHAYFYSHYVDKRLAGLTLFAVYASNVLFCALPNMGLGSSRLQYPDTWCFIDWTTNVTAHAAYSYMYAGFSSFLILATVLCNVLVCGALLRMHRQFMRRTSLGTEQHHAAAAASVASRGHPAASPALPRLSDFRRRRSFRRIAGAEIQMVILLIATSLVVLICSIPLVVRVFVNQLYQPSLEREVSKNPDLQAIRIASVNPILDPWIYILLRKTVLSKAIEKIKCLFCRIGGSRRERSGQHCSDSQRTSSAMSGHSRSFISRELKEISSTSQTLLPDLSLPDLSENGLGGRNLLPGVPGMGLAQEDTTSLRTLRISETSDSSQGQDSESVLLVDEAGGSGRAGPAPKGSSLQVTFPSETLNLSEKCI
# From the text: as §1, §2, §3, §4, §5, §6, §7
# b) cAMP Assay on Human EP4 Membrane of Transfected Cells.
# The assay is based on the competition between endogenous cAMP and exogenously added biotinylated cAMP. The capture of cAMP is achieved by using a specific antibody conjugated to […] beads.
# Cell membranes prepared as described above, were resuspended in 1 ml stimulation buffer (HBSS 1×+BSA 0.1%+IBMX 0.5 mM+HEPES 5 mM+MgCl2 10 mM+GTP 1 nM+GDP 10 μM+ATP 100 μM-pH 7.4). Cell membranes were dispensed into white 384-well microplates at final concentration of 1 μg/well and used for the determination of cAMP with the alphascreen cAMP functional assay (EnVision-PerkinElmer). Cell membrane/anti-cAMP Acceptor beads mix (5 μl) and a mixture of analysed compounds (dissolved in 100% DMSO to a final maximal concentration of 0.01% DMSO)/PGE2 (5 μl) were incubated at room temperature (22-23° C.) for 30 min in the dark. The Biotinylated-cAMP and donor beads (15 μl) were dispensed into each well to start the competition reaction. After 1 h incubation RT (22-23° C.) in the dark the plate was read using EnVision platform to determine the cAMP level (excitation: 680 nm; emission:520,620 nm).
# cAMP standard curve (concentration range from 1×10-6 to 1×10-11 M in log intervals) with a negative control (no cAMP)
# a positive control:forskolin 10 μM
# Antagonism studies were performed stimulating HEK293 cell membrane with PGE2 3 nM. The AlphaScreen signal is plotted as a function of log concentration of cAMP and EC50 is determined. EC50 value is calculated by […].
# T1 sequence (P35408 whole entry): as above
Ki [1] [M],EC50 [2] [nM],SMILES
3.16e-08,1,"C[C@H](NC(=O)[C@H]1CCCCN1Cc1cccc(C(F)(F)F)c1)c1ccc(C(=O)O)cc1 [Example E5, lithium 4-((S)-1-((R)-1-(3-(trifluoromethyl)benzyl)piperidine-2-carboxamido)ethyl)benzoate]"
7.94e-09,2.9,"O=C(O)c1ccc(C2(NC(=O)[C@H]3CCCCN3Cc3cccc(C(F)(F)F)c3)CC2)cc1 [Example E9, lithium (R)-4-(1-(1-(3-(trifluoromethyl)benzyl)piperidine-2-carboxamido)cyclopropyl)benzoate]"
3.16e-08,6,"Cc1cc(CN2CCCC[C@@H]2C(=O)NC2(c3ccc(C(=O)O)cc3)CC2)ccc1F [Example E12, (R)-4-(1-(1-(4-fluoro-3-methylbenzyl)piperidine-2-carboxamido)cyclopropyl)benzoic acid]"
1e-08,8,"O=C(O)c1ccc(C2(NC(=O)[C@H]3CCCCN3Cc3ccc(F)c(C(F)(F)F)c3)CC2)cc1 [Example E13, lithium (R)-4-(1-(1-(4-fluoro-3-(trifluoromethyl)benzyl)piperidine-2-carboxamido)cyclopropyl)benzoate]"
2e-08,13.5,"C[C@H](NC(=O)[C@H]1CCCN1Cc1cccc(C(F)(F)F)c1)c1ccc(C(=O)O)cc1 [Example E15, lithium 4-((S)-1-((R)-1-(3-(trifluoromethyl)benzyl)pyrrolidine-2-carboxamido)ethyl)benzoate]"
3.98e-08,0.1,"C[C@H](NC(=O)[C@H]1C[C@@H](O)CN1Cc1cccc(C(F)(F)F)c1)c1ccc(C(=O)O)cc1 [Example E19, lithium 4-((S)-1-((2R,4R)-4-hydroxy-1-(3-(trifluoromethyl)benzyl)pyrrolidine-2-carboxamido)ethyl)benzoate]"

# Source: patent US9120824B2, “Cyclic amine derivatives as EP4 receptor agonists” (ROTTAPHARM BIOTECH S.R.L., priority 2011, dated 2015)
